Assays:
Details in all cases: exposure time 48 h
[1] = test system: Caenorhabditis elegans N2; assay: mean nematode size ln(EXT) after 48 h, plate-adjusted (DMSO control set to 6) (ln(EXT), control-adjusted); higher = larger nematodes / less growth inhibition
How it was run: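 A growth model removed debris from Biosort extinction readings taken on each worm. These worms were synchronised C. elegans N2 L1 larvae, 50 per well in 4–6 wells per treatment, grown for 48 h at 20°C in K-medium with killed OP50, 1% DMSO and 0.5–200 µM chemical. Readings were natural-logged and averaged by well to give mean size. On each plate, the vehicle control mean was subtracted and 6 was added.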

[2] = test system: Caenorhabditis elegans N2; assay: AC50 for larval growth inhibition (Hill fit); higher = less potent
How it was run: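 AC50 values come from a constrained Hill fit by weighted genetic-algorithm regression and are censored when out of range. The fit used only wells with at least 10 worms. Each well of a 96-well plate held 50 synchronised C. elegans N2 L1 larvae in K-medium with killed OP50, 1% DMSO and 0.5–200 µM chemical for 48 h at 20°C. A COPAS Biosort recorded each worm's size as extinction, which was log-transformed and averaged per well.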

[3] = test system: Caenorhabditis elegans N2; assay: lowest effective concentration for larval growth inhibition (size below effect threshold); higher = less potent
How it was run: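 Chemical exposure ran for 48 h at 20°C: 50 C. elegans N2 L1 larvae per 96-well in K-medium with killed bacteria, 1% DMSO and 0.5, 1, 5, 10, 50, 100 or 200 µM chemical. Extinction of each worm, read as size on the Biosort, was log-transformed and averaged by well. The lowest effective concentration is the first dose whose plate-adjusted mean size is below a fixed value and remains so at all higher doses; the value is 5.665.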

Compound	mean nematode size ln(EXT) (ln) ([1]; 0.5 µM)	mean nematode size ln(EXT) (ln) ([1]; 1 µM)	mean nematode size ln(EXT) (ln) ([1]; 5 µM)	mean nematode size ln(EXT) (ln) ([1]; 10 µM)	mean nematode size ln(EXT) (ln) ([1]; 50 µM)	mean nematode size ln(EXT) (ln) ([1]; 100 µM)	mean nematode size ln(EXT) (ln) ([1]; 200 µM)	AC50 for larval growth inhibition [2] [µM]	lowest effective concentration [3] [µM]
CCCCCCCCCCCCO [1-Dodecanol]	5.89	5.85	5.73	5.63	3.72	3.69	3.49	20.3	10
CCCCCCCCCCCCCCCCO [1-Hexadecanol]	5.89	5.83	5.86	5.79	5.68	5.79	5.64	> 200	200
Oc1ccc2ccc3cccc4ccc1c2c34 [1-Hydroxypyrene]	6	5.88	5.84	5.75	3.72	3.8	3.87	16	50
OCCC(F)(F)C(F)(F)C(F)(F)C(F)(F)C(F)(F)C(F)(F)F [1-Octanol, 3,3,4,4,5,5,6,6,7,7,8,8,8-tridecafluoro-]	5.87	5.92	5.88	5.94	5.91	5.77	5.65	> 200	200
CCCCCCCCCCCCCCCO [1-Pentadecanol]	5.76	5.96	5.83	5.8	5.59	5.49	5.3	> 200	50
CCCCCCCCCCCCCCO [1-Tetradecanol]	5.94	5.92	5.87	5.61	3.67	3.57	3.42	19.7	10
CCCCCCCCCCCCCO [1-Tridecanol]	5.9	5.76	5.58	5.34	3.57	3.5	3.54	15.4	5
CCCCCCCCCCCO [1-Undecanol]	5.77	6.01	5.84	5.7	3.79	3.74	4.93	18.4	50
FC(F)(F)C(F)(F)C(F)(F)C(F)(F)C(F)(F)C(F)(F)CCI [1H,1H,2H,2H-Perfluorooctyl iodide]	5.99	5.98	5.95	5.96	5.94	5.86	4.39	190	200
Oc1ccc(C(c2ccc(O)cc2)C(Cl)(Cl)Cl)cc1 [2,2-Bis(4-hydroxyphenyl)-1,1,1-trichloroethane (HPTE)]	6.16	6.15	6.1	6.01	5.25	4.61	4.12	66.9	50
N#CC(Br)(Br)C(N)=O [2,2-Dibromo-3-nitrilopropionamide]	6.09	6.03	6.04	6.07	5.96	5.94	5.57	> 200	200
Cc1ccc(C)c(O)c1C [2,3,6-Trimethylphenol]	5.88	6.02	5.94	5.93	5.93	5.9	5.65	> 200	200
Oc1c(Cl)cc(Cl)cc1Cl [2,4,6-Trichlorophenol]	5.87	5.85	5.9	5.83	5.82	5.87	5.66	> 200	200
CC(C)(C)c1cc(C(C)(C)C)c(O)c(C(C)(C)C)c1 [2,4,6-Tris(tert-butyl)phenol]	5.84	5.9	5.94	5.7	5.58	5.4	4.67	> 200	50
CC(C)(c1ccccc1)c1ccc(O)c(C(C)(C)c2ccccc2)c1 [2,4-Bis(alpha,alpha-dimethylbenzyl)phenol]	6	5.67	5.74	5.45	4.67	4.3	3.8	58.7	10
CC(C)(C)c1ccc(O)c(C(C)(C)C)c1 [2,4-Di-tert-butylphenol]	5.97	5.97	5.99	5.88	5.62	5.5	4.45	186	50
Cc1ccc(N)cc1N [2,4-Diaminotoluene]	5.86	5.94	5.9	5.74	5.89	5.72	5.5	> 200	200
O=[N+]([O-])c1ccc(O)c([N+](=O)[O-])c1 [2,4-Dinitrophenol]	5.82	5.79	5.78	5.83	5.83	5.75	5.52	> 200	200
O=[N+]([O-])c1ccc(Oc2ccc(Cl)cc2Cl)cc1 [2,4-dichloro-1-(4-nitrophenoxy)benzene]	5.88	5.74	5.03	3.93	3.8	3.76	4.04	5.16	5
CC(C)(C)OOC(C)(C)CCC(C)(C)OOC(C)(C)C [2,5-Dimethyl-2,5-bis(tert-butylperoxy)hexane]	5.81	5.83	5.81	5.79	5.78	5.79	4.23	185	200
CCCOC(=O)c1ccc(C(=O)OCCC)nc1 [2,5-Pyridinedicarboxylic acid, dipropyl ester]	5.88	5.95	5.98	5.99	5.93	5.85	5.38	> 200	200
CC(C)(C)c1cccc(C(C)(C)C)c1O [2,6-Di-tert-butylphenol]	6.07	5.99	6.03	6.07	5.91	5.88	5.19	> 200	200
Nc1ccc2c(c1)C(=O)c1ccccc1C2=O [2-Aminoanthraquinone]	6.17	5.82	5.77	5.81	5.75	4.42	5.14	53.9	100

Compound	mean nematode size ln(EXT) (ln) ([1]; 0.5 µM)	mean nematode size ln(EXT) (ln) ([1]; 1 µM)	mean nematode size ln(EXT) (ln) ([1]; 5 µM)	mean nematode size ln(EXT) (ln) ([1]; 10 µM)	mean nematode size ln(EXT) (ln) ([1]; 50 µM)	mean nematode size ln(EXT) (ln) ([1]; 100 µM)	mean nematode size ln(EXT) (ln) ([1]; 200 µM)	AC50 for larval growth inhibition [2] [µM]	lowest effective concentration [3] [µM]
CCCCCC/C(C=O)=C\c1ccccc1 [2-Benzylideneoctanal]	5.84	5.85	5.79	5.69	5.13	5.22	5.01	28.8	50
O=C(CCl)c1ccccc1 [2-Chloroacetophenone]	5.82	5.84	5.82	5.48	5.82	5.8	4.95	> 200	200
Cc1ccccc1Cl [2-Chlorotoluene]	6.08	6.06	5.92	6.02	5.98	6.04	3.3	178	200
CCCCCCCCOc1ccc(C(=O)c2ccccc2)c(O)c1 [2-Hydroxy-4-(octyloxy)benzophenone]	5.91	5.98	5.92	5.95	5.61	5.56	5.64	19.2	50
O=C(O)CC(O)C(=O)O (stereo not given) [2-Hydroxybutanedioic acid]	5.83	5.82	5.8	5.81	5.83	5.61	5.58	> 200	100
Sc1nc2ccccc2s1 [2-Mercaptobenzothiazole]	5.83	5.81	5.8	5.76	5.69	5.59	5.57	> 200	100
Nc1ccc2ccccc2c1 [2-Naphthylamine]	6	5.76	5.94	5.72	5.71	5.89	5.51	> 200	200
Oc1ccccc1-c1ccccc1 [2-Phenylphenol]	5.84	5.73	5.68	5.99	6.05	5.96	5.13	179	200
CCc1ccc(O)c(C(C)(C)C)c1 [2-tert-Butyl-4-ethylphenol]	5.77	5.75	5.72	5.86	5.45	5.58	4.88	> 200	50
COc1ccc(O)c(C(C)(C)C)c1 [2-tert-Butyl-4-methoxy-phenol]	5.78	5.98	5.87	5.84	5.94	5.8	5.54	> 200	200
Cc1ccc(C(C)(C)C)c(O)c1 [2-tert-Butyl-5-methylphenol]	6.07	6.05	6.02	6.06	5.95	5.91	4.77	> 200	200
CC(C)(C)c1ccccc1O [2-tert-Butylphenol]	5.96	5.94	5.97	5.92	5.81	5.81	4.94	> 200	200
CC(C)(c1cc(Br)c(O)c(Br)c1)c1cc(Br)c(O)c(Br)c1 [3,3',5,5'-Tetrabromobisphenol A]	5.84	5.92	5.93	5.56	4.75	4.36	4.27	28.3	10
C=C(C)C(=O)OCCC(F)(F)C(F)(F)C(F)(F)C(F)(F)C(F)(F)C(F)(F)F [3,3,4,4,5,5,6,6,7,7,8,8,8-Tridecafluorooctyl methacrylate]	5.88	5.84	5.84	5.73	5.6	5.45	5.57	23	50
O=C(Nc1ccc(Cl)cc1)Nc1ccc(Cl)c(Cl)c1 [3,4,4'-Trichlorocarbanilide]	5.51	4.97	4.28	4.21	4.26	4.1	3.81	0.964	≤ 0.5
Oc1ccc2c(c1)-c1ccccc1C2 [3-Hydroxyfluorene]	5.81	5.96	5.84	5.97	5.6	4.66	3.77	97.8	50
CCCCNC(=O)OCC#CI [3-Iodo-2-propynylbutylcarbamate]	6.05	5.98	6.06	6.03	5.84	4.8	3.17	101	100
Cc1cccc(N)c1N [3-Methylbenzene-1,2-diamine]	6.01	5.93	5.87	5.79	5.78	5.79	5.05	> 200	200
N#Cc1cccnc1 [3-Pyridinecarbonitrile]	5.73	5.78	5.61	5.65	5.65	5.65	5.54	18.2	5
Nc1ccc(Cc2ccc(N)cc2)cc1 [4,4'-Methylenedianiline]	5.98	5.73	5.91	5.78	5.87	5.92	5.53	> 200	200
Nc1ccc(Oc2ccc(N)cc2)cc1 [4,4'-Oxydianiline]	5.84	5.87	5.84	5.83	5.54	5.83	5.39	> 200	200
CN(C)c1ccc(Cc2ccc(N(C)C)cc2)cc1 [4,4'-methylenebis(N,N-dimethylaniline)]	5.92	5.8	5.81	5.86	5.74	5.17	5.04	66.3	100

Reference: the supplement of paper PMC4858399
